Measured values published in ChEMBL document CHEMBL2074322, “Bidirectional transport of rhodamine 123 and Hoechst 33342, fluorescence probes of the binding sites on P-glycoprotein, across MDCK-MDR1 cell monolayers” (J Pharm Sci, 2004).

Tests used:
Assay type in all cases: functional, cell-based
Details in all cases: dog
[1] = target: T1, ATP-dependent translocase ABCB1 (Homo sapiens, UniProt P08183); assay: TP_TRANSPORTER: transepithelial transport in MDR1-expressing MDCK cells
[2] = target: T1, ATP-dependent translocase ABCB1; assay: TP_TRANSPORTER: transepithelial transport of Rhodamine 123 in the presence of Hoechst 33342 at a concentration of 5uM in MDR1-expressing MDCK cells
[3] = target: T1, ATP-dependent translocase ABCB1; assay: TP_TRANSPORTER: transepithelial transport of Hoechst 33342 in the presence of Daunorubicin (Daunomycin) at a concentration of 80uM in MDR1-expressing MDCK cells
[4] = target: T1, ATP-dependent translocase ABCB1; assay: TP_TRANSPORTER: transepithelial transport of Rhodamine 123 in the presence of Daunorubicin (Daunomycin) at a concentration of 80uM in MDR1-expressing MDCK cells

T1 sequence (P08183 whole entry): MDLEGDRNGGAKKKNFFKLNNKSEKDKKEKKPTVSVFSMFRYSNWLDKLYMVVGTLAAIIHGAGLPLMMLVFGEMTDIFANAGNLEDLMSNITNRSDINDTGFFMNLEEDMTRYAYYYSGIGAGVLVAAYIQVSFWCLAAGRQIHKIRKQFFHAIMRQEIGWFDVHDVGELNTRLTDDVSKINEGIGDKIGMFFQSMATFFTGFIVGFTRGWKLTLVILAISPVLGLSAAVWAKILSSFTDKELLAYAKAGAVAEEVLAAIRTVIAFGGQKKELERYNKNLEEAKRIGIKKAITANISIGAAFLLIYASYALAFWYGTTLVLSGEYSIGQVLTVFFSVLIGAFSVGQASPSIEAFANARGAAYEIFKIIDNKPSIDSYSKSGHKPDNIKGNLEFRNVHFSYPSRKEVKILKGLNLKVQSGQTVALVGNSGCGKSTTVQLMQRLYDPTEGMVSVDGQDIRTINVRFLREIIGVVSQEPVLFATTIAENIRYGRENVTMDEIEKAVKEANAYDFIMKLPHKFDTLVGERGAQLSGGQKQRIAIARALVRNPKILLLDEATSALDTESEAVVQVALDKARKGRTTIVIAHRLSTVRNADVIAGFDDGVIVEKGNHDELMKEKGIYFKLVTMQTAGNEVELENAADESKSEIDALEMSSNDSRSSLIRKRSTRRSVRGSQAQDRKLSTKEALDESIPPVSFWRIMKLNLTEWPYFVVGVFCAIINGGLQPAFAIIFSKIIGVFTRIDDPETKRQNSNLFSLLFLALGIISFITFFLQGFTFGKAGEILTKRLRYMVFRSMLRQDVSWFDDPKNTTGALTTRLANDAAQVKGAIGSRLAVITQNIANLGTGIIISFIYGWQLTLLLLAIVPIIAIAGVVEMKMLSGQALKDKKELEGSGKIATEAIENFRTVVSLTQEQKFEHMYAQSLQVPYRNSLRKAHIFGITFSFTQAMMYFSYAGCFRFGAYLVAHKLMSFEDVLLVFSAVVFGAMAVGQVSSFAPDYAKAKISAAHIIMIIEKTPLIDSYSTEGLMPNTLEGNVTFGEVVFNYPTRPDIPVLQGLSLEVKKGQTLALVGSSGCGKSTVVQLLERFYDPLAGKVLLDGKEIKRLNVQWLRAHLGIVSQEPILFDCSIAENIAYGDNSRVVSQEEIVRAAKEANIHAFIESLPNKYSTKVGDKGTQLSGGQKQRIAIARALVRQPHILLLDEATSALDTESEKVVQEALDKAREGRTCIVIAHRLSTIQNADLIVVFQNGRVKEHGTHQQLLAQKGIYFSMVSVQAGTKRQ

Activity [3] | Activity [4] | Compound | Activity [1] | Activity [2]
– | – | CCOc1ccc(-c2nc3cc(-c4nc5cc(N6CCN(C)CC6)ccc5[nH]4)ccc3[nH]2)cc1 | substrate [+] | inhibitor [+]
inhibitor [+] | inhibitor [+] | COc1cccc2c1C(=O)c1c(O)c3c(c(O)c1C2=O)C[C@@](O)(C(C)=O)C[C@@H]3O[C@H]1C[C@H](N)[C@H](O)[C@H](C)O1 [DAUNORUBICIN] | – | –
– | – | COC(=O)c1ccccc1-c1c2ccc(=N)cc-2oc2cc(N)ccc12.Cl [RHODAMINE123] | substrate [+] | –
